Like-named read-outs stand apart in the source and are kept apart here.
Columns and labels:
[1] = system: Leptinotarsa decemlineata, Kartoffelkäfer; assay: Persistence test on treated potato plants (7 days at 30°C with UV irradiation before infestation); assay type: in vivo; conditions: 168 h, wettable powder per Beispiel 2, 7 days 30°C + UV, then 10 first-instar larvae per plant, reduction of survival rate vs control, read-out: % Wirkung
Description: Testinsekt: Leptinotarsa decemlineata, Kartoffelkäfer Testmethode: Persistenztest
(§1) Kartoffelpflanzen werden bis zum Abtropfen behandelt. Nach dem Antrocknen werden die Pflanzen in einem Ecophyten bei 30°C und UV-Bestrahlung während 7 Tagen inkubiert. Nach der Inkubation werden pro Pflanze 10 Larven des ersten Stadiums angesetzt. Die Resultate werden ausgedrückt als prozentuale Reduktion der Ueberlebensrate der Leptinotarsa-Larven im Vergleich zu den Kontrollparzellen.
Die Formulierung der Wirkstoffe erfolgte gemäss Beispiel 2 ai = Wirkstoff

[2] = system: Leptinotarsa decemlineata, Kartoffelkäfer; assay: Initial activity on potato leaf discs; assay type: in vivo; conditions: foliar, 96 h, read-out: % Wirkung
Description: Testinsekt: Leptinotarsa decemlineata, Kartoffelkäfer Testmethode: Initialwirkung auf Blattrondellen
Kartoffelblattrondellen werden mit acetonischer Wirk- stofflösung besprüht. Pro Rondelle werden 5 frischgeschlüpfte Larven des ersten Stadiums angesetzt und bei 25°C und 60% rel. Feuchtigkeit inkubiert. Unbehandelte und mit Aceton behandelte Blattrondellen dienen als Kontrolle. Testdauer: 4 Tage. Die Resultate werden ausgedrückt als prozentuale Reduktion der Ueberlebensrate der Larven im Vergleich zu den Kontrollparzellen.

[3] = system: Epilachna chrysomelina, Gurkenkäfer; assay: Persistence test on treated pumpkin plants (7 days at 30°C with UV irradiation before infestation); assay type: in vivo; conditions: 168 h, wettable powder per Beispiel 2, 7 days 30°C + UV, then 10 first-instar larvae per plant, reduction of survival rate vs control, read-out: % Wirkung
Description: Testinsekt: Epilachna chrysomelina, Gurkenkäfer Testmethode: Persistenztest
as §1, with “Kürbispflanzen” for “Kartoffelpflanzen”, “Epilachna-Larven” for “Leptinotarsa-Larven”
Die Formulierung der Wirkstoffe erfolgte gemäss Beispiel 2. ai = Wirkstoff

[4] = system: Aedes aegypti, Gelbfiebermücke; assay: Initial activity in water against larvae; assay type: in vivo; conditions: 168 h
Description: Testinsekt: Aedes aegypti, Gelbfiebermücke Testmethode: Initialwirkung im Wasser
0,2 ml acetonische Wirkstofflösung werden mit 20 ml Leitungswasser gemischt. Pro Parzelle werden 10 Larven im letzten Larvenstadium angesetzt und bei 25°C und 60% rel. Feuchtigkeit inkubiert bis zum Schlüpfen der Adulten in den Kontrollparzellen. Unbehandeltc und mit Aceton behandelte Parzellen dienen als Kontrollen. Testdauer: 7 Tage. Die Wirkung wird ausgedrückt als prozentuale Reduktion der Zahl normaler Adulter im Vergleich zu den Kontrollparzellen.

Water solubility = assay type: physicochemical; conditions: qualitative statement
Source text: Die Verbindung der Formel I ist wasserunlöslich und kann nach irgendeiner der für unlösliche Verbindungen üblichen Methoden konfektioniert werden.

[5] = Acute oral toxicity in the mouse; conditions: in vivo, Maus, read-out: akute orale Toxizität
Description: Die Verbindung wirkt als direktes Insektizid. Sie hat auch systemische Aktivität. Sie zeichnet sich unter Praxisbedingungen durch eine besonders günstige Wirkungsdauer aus. Die Verbindung ist ferner von Wert für die Bekämpfung von Schädlingen bei Tieren. So zeigt beispielsweise die Verbindung der Formel I in einer Konzentration von 10^-7 g/ml im Test gegen Aedes aegypti eine Wirkung von 100%. Die akute orale Toxizität an der Maus beträgt mehr als 1000 mg/kg.

UV stability = assay type: physicochemical; conditions: qualitative statement

Row | SMILES | mortality at 0.01 % ([1]; Konz. 0,01 % ai) | mortality at 0.03 % ([1]; Konz. 0,03 % ai) | mortality at 1e-07 g/cm2 ([2]; Dosis 10^-7 g ai/cm^2, acetone solution, first-instar larvae, 25°C, 60% rel. humidity, 4 days, reduction of survival rate vs control) | mortality at 1e-08 g/cm2 ([2]; Dosis 10^-8 g ai/cm^2, acetone solution, first-instar larvae, 25°C, 60% rel. humidity, 4 days, reduction of survival rate vs control) | mortality at 1e-09 g/cm2 ([2]; Dosis 10^-9 g ai/cm^2, acetone solution, first-instar larvae, 25°C, 60% rel. humidity, 4 days, reduction of survival rate vs control) | mortality at 0.01 % ([3]; Konz. 0,01 % ai) | mortality at 0.03 % ([3]; Konz. 0,03 % ai) | mortality at 1 µg/mL ([4]; Dosis 10^-6 g ai/ml Wasser, last-instar larvae, 25°C, 7 days, reduction of number of normal adults vs control, read-out: % Wirkung) | mortality at 0.1 µg/mL ([4]; Dosis 10^-7 g ai/ml Wasser, last-instar larvae, 25°C, 7 days, reduction of number of normal adults vs control, read-out: % Wirkung) | mortality at 0.01 µg/mL ([4]; Dosis 10^-8 g ai/ml Wasser, last-instar larvae, 25°C, 7 days, reduction of number of normal adults vs control, read-out: % Wirkung) | mortality at 1e-09 g/cm2 [2] | mortality at 1e-08 g/cm2 [2] | mortality at 1e-07 g/cm2 [2] | Wasserlöslichkeit (Water solubility) | LD50 [5] | mortality at 0.01 µg/mL ([4]; read-out: % Wirkung) | mortality at 0.1 µg/mL ([4]; read-out: % Wirkung) | mortality at 1 µg/mL ([4]; read-out: % Wirkung) | mortality at 0.1 µg/mL ([4]; read-out: Wirkung) | UV-Stabilität (UV stability)
1 | CNC(=O)Oc1cccc2c1OC(C)(C)O2 [Formel II] | 5% | 95% | 100% | 8% | 0% | 30% | 100% | 100% | 2% | 0% | – | – | – | – | – | – | – | – | – | –
2 | CN(SN(C)C(=O)Oc1cccc2c1OC(C)(C)O2)C(=O)Oc1cccc2c1OC(C)(C)O2 [Formel I, Bis-[2,3-(isopropylidendioxy)-phenyl]-thio-bis-N-methylcarbamat] | – | – | – | – | – | – | – | – | – | – | 0% | 79% | 100% | wasserunlöslich | > 1000 mg/kg | 13% | 100% | 100% | 100% | hohe UV-Stabilität
